# In US8389513B2, “2-amino-5,5-difluoro-5,6-dihydro-4H-[1,3]oxazin-4-yl)-phenyl]-amides” (Hoffmann-La Roche Inc., priority 2009, dated 2013):
# What was measured:
# [1] = molecular target: T1, CYP3A4 (Homo sapiens, UniProt P08684); test: CYP inhibition assay, CYP3A4; assay type: in vitro ADME; conditions: human liver microsomes, midazolam; read-out: CYP IC50 3A4
# T1 construct: 0.2 mg/ml pooled human liver microsomes; from tissue; host or cells: pooled human liver microsomes
# Procedure: (§1) Inhibition of cytochromes P450 (CYPs) 2C9, 2D6 and 3A4 was assessed using human liver microsomes and CYP-selective substrate metabolism reactions. 50 μl incubations were made up containing (finally) 0.2 mg/ml pooled human liver microsomes, 5 μM substrate (diclofenac for CYP2C9 [4′ hydroxylase], dextromethorphan for CYP2D6 [O-demethylase] or midazolam for CYP3A4 [1′ hydroxylase]), 0.25 μL DMSO containing test inhibitor and NADPH regenerating system. […] Incubations were prewarmed to 37° C. for 10 minutes before initiation by addition of NADPH regenerating system. Incubations were quenched after 5 minutes (20 minutes for dextromethorphan) by addition of 50 μl cold acetonitrile containing 20 ng/ml 4-OH-diclofenac-13C6, 20 ng/mL dextrorphan-D3 and 20 ng/mL 1-OH-midazolam-D4. Quenched incubates were stored at −20° C. for at least 1 hour before centrifugation (20,000×g, 20 minutes). Supernatants were removed and diluted 1:1 with water prior to analysis using a RapidFire sample injector system and API4000 mass spectrometer. Peak areas for substrate, metabolite and stable-labelled metabolite standard were determined using MS/MS. The peak area ratios between the metabolite generated by the enzymatic reaction and the internal standard were used in subsequent calculations. The percentage of (DMSO) control activity was calculated for each incubate and IC50 values estimated by non-linear regression. Sulfaphenazole, quinidine or ketoconazole were tested in each CYP2C9, CYP2D6 or CYP3A4 inhibition experiment, respectively, to ensure assay sensitivity and reproducibility.
# [2] = molecular target: T2, recombinant human cathepsin E (Homo sapiens, UniProt P14091); test: Cathepsin E fluorescent substrate kinetic assay; assay type: biochemical; conditions: pH 4.5
# T2 construct: purchased R&D Systems
# T2 sequence (P14091 54-396): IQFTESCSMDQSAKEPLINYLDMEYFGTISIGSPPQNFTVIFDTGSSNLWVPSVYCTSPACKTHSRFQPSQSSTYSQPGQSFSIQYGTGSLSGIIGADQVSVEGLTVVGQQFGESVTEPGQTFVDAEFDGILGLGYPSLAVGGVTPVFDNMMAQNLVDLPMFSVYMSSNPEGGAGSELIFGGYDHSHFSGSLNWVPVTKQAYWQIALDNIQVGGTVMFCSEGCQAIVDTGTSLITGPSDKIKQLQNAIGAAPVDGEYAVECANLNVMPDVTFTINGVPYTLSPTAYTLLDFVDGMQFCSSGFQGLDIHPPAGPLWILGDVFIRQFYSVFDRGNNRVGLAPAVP
# Excerpt: (§2) Cathepsin D and Cathepsin E Fluorescent Substrate Kinetic Assays
# The MR121 fluorescence assays described below are based on the fact that MR121 forms a non-fluorescent ground state complex with tryptophan. In solution this formation occurs at millimolar concentrations of tryptophan. The mechanism can be used to design a generic biochemical assay for proteases. […] In absence of protease activity, the substrates remain intact and the MR121 fluorescence is reduced by the high local Trp-concentration. If the substrates are cleaved by the enzymes the MR121 fluorescence is recovered.
# The fluorescent substrate cathepsin D and cathepsin E kinetic assays were performed at room temperature in 384-well microtiter plates (black with clear flat bottom, non binding surface plates from Corning) in a final volume of 51 μl. The test compounds were serially diluted in DMSO (15 concentrations, 1/3 dilution steps) and 1 μl of diluted compounds were mixed for 10 min with 40 μl of cathepsin D (from human liver, Calbiochem) diluted in assay buffer (100 mM sodium acetate, 0.05% BSA, pH 5.5; final concentration: 200 nM) or with 40 μl of recombinant human cathepsin E (R&D Systems) diluted in assay buffer (100 mM sodium acetate, 0.05% BSA, pH 4.5; final concentration: 0.01 nM). […] The enzymatic reaction was followed in a plate: vision reader (Perkin Elmer) (excitation wavelength: 630 nm; emission: 695 nm) for at least 30 minutes in a kinetic measurement detecting an increase of MR121 fluorescence during the reaction time. The slope in the linear range of the kinetic was calculated and the IC50 of the test compounds were determined using a four parameter equation for curve fitting.
# [3] = molecular target: T3, cathepsin D (from human liver) (Homo sapiens, UniProt P07339); test: Cathepsin D fluorescent substrate kinetic assay; assay type: biochemical; conditions: pH 5.5
# T3 construct: cathepsin D (from human liver, Calbiochem); purchased Calbiochem; host or cells: human liver
# Excerpt: as §2
# The MR121 fluorescence assays described below are based on the fact that MR121 forms a non-fluorescent ground state complex with tryptophan. In solution this formation occurs at millimolar concentrations of tryptophan. The mechanism can be used to design a generic biochemical assay for proteases. A substrate peptide is labeled at the N-terminus with tryptophan and at the C-terminus with the fluorophore MR121 (for cathepsin D the 10 amino acid peptide […]-MR121 was used; for cathepsin E, MR121-[…] was used). In absence of protease activity, the substrates remain intact and the MR121 fluorescence is reduced by the high local Trp-concentration. If the substrates are cleaved by the enzymes the MR121 fluorescence is recovered.
# The fluorescent substrate cathepsin D and cathepsin E kinetic assays were performed at room temperature in 384-well microtiter plates (black with clear flat bottom, non binding surface plates from Corning) in a final volume of 51 μl. The test compounds were serially diluted in DMSO (15 concentrations, 1/3 dilution steps) and 1 μl of diluted compounds were mixed for 10 min with 40 μl of cathepsin D (from human liver, Calbiochem) diluted in assay buffer (100 mM sodium acetate, 0.05% BSA, pH 5.5; final concentration: 200 nM) or with 40 μl of recombinant human cathepsin E (R&D Systems) diluted in assay buffer (100 mM sodium acetate, 0.05% BSA, pH 4.5; final concentration: 0.01 nM). After addition of 10 μl of the cathepsin D substrate […]-MR121 diluted in cathepsin D assay buffer (final concentration: 300 nM) or 10 µl of the cathepsin E substrate MR121-[…] diluted in cathepsin E assay buffer (final concentration: 300 nM), the plates were strongly shaken for 2 minutes. The enzymatic reaction was followed in a plate: vision reader (Perkin Elmer) (excitation wavelength: 630 nm; emission: 695 nm) for at least 30 minutes in a kinetic measurement detecting an increase of MR121 fluorescence during the reaction time. The slope in the linear range of the kinetic was calculated and the IC50 of the test compounds were determined using a four parameter equation for curve fitting.
# [4] = molecular target: T4, CYP2D6 (Homo sapiens, UniProt P10635); test: CYP inhibition assay, CYP2D6; assay type: in vitro ADME; conditions: human liver microsomes, dextromethorphan; read-out: CYP IC50 2D6
# T4 construct: 0.2 mg/ml pooled human liver microsomes; from tissue; host or cells: pooled human liver microsomes
# Procedure: as §1
# [5] = in vivo effect; conditions: po; % of control @ 30 mg/kg p.o.
# T3 sequence (P07339 65-412): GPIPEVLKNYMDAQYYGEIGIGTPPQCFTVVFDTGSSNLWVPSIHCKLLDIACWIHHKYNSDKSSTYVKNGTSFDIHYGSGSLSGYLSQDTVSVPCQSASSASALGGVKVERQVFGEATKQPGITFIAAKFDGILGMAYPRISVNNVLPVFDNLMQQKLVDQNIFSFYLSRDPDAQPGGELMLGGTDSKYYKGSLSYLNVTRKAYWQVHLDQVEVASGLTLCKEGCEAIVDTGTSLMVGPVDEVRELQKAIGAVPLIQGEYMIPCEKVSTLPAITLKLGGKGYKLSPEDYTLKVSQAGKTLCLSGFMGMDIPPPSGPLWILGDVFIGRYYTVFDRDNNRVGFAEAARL
# T1 sequence (P08684 whole entry): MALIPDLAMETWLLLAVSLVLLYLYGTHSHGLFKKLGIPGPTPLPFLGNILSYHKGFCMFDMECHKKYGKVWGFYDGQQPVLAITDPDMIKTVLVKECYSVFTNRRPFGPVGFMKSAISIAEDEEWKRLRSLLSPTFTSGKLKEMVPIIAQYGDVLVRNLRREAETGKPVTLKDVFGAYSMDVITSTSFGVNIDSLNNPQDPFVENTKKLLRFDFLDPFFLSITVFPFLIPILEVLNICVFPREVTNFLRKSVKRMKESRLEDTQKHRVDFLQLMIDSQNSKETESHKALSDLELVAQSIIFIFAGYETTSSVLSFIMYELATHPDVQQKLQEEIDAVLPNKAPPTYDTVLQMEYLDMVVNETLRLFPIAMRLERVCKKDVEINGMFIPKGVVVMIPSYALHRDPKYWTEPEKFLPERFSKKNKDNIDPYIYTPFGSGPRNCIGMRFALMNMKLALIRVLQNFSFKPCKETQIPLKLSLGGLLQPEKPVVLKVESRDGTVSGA
# T4 sequence (P10635 whole entry): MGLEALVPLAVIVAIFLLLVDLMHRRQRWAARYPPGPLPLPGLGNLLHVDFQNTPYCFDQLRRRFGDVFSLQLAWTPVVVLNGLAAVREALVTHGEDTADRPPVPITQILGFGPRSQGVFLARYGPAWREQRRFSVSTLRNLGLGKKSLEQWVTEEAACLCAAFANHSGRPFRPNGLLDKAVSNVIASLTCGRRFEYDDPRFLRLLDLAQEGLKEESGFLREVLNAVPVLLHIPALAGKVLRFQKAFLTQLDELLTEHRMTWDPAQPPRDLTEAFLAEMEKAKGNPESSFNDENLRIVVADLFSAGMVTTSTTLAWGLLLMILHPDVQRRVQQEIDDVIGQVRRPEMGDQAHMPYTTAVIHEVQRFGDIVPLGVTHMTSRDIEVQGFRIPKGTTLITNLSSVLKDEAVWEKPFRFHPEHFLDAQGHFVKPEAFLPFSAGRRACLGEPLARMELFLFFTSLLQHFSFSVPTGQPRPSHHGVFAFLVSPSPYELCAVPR
IC50 [1],IC50 [2],IC50 [3],IC50 [4],SMILES,response vs control in vivo at 30 mg/kg [5]
> 10 µM,109 µM,> 200 µM,1 to 10 µM,"C[C@]1(c2cc(NC(=O)c3ccc(Cl)cn3)ccc2F)N=C(N)OCC1(F)F [Example 1, 5-Chloro-pyridine-2-carboxylic acid [3-((R)-2-amino-5,5-difluoro-4-methyl-5,6-dihydro-4H-[1,3]oxazin-4-yl)-4-fluoro-phenyl]-amide]",< 50%
> 10 µM,> 200 µM,> 200 µM,1 to 10 µM,"C[C@]1(c2cc(NC(=O)c3ncc(C(F)(F)F)cc3Cl)ccc2F)N=C(N)OCC1(F)F [Example 5, 3-Chloro-5-trifluoromethyl-pyridine-2-carboxylic acid [3-((R)-2-amino-5,5-difluoro-4-methyl-5,6-dihydro-4H-[1,3]oxazin-4-yl)-4-fluoro-phenyl]-amide]",< 50%
> 10 µM,–,> 170 µM,> 10 µM,"C[C@]1(c2cc(NC(=O)c3ncc(Cl)cc3Cl)ccc2F)N=C(N)OCC1(F)F [Example 8, 3,5-Dichloro-pyridine-2-carboxylic acid [3-((R)-2-amino-5,5-difluoro-4-methyl-5,6-dihydro-4H-[1,3]oxazin-4-yl)-4-fluoro-phenyl]-amide]",< 50%
> 10 µM,> 200 µM,> 200 µM,1 to 10 µM,"CC1(C)OC(N)=N[C@](C)(c2cc(NC(=O)c3ncc(C(F)(F)F)cc3Cl)ccc2F)C1(F)F [Example 20, 3-Chloro-5-trifluoromethyl-pyridine-2-carboxylic acid [3-((R)-2-amino-5,5-difluoro-4,6,6-trimethyl-5,6-dihydro-4H-[1,3]oxazin-4-yl)-4-fluoro-phenyl]-amide]",< 50%
> 10 µM,> 200 µM,> 200 µM,> 10 µM,"CC1(C)OC(N)=N[C@](C)(c2cc(NC(=O)c3ccc(C#N)cn3)ccc2F)C1(F)F [Example 21, 5-Cyano-pyridine-2-carboxylic acid [3-((R)-2-amino-5,5-difluoro-4,6,6-trimethyl-5,6-dihydro-4H-[1,3]oxazin-4-yl)-4-fluoro-phenyl]-amide]",< 50%
1 to 10 µM,> 200 µM,> 200 µM,1 to 10 µM,"CC1(C)OC(N)=N[C@](C)(c2cc(NC(=O)c3ncc(C#N)cc3Cl)ccc2F)C1(F)F [Example 22, 3-Chloro-5-cyano-pyridine-2-carboxylic acid [3-((R)-2-amino-5,5-difluoro-4,6,6-trimethyl-5,6-dihydro-4H-[1,3]oxazin-4-yl)-4-fluoro-phenyl]-amide]",< 50%
1 to 10 µM,> 200 µM,> 200 µM,> 10 µM,"C[C@]1(c2cc(NC(=O)c3ncc(C#N)cc3Cl)ccc2F)N=C(N)OCC1(F)F [Example 39, 3-Chloro-5-cyano-pyridine-2-carboxylic acid [3-((R)-2-amino-5,5-difluoro-4-methyl-5,6-dihydro-4H-[1,3]oxazin-4-yl)-4-fluoro-phenyl]-amide]",< 50%
